{"source": "patent US10287616B2", "about": "“Label free biosensors, gram-negative bacteria detection, and real-time and end point determination of antibiotic effects” (priority 2015, dated 2019)", "key": {"E. coli W1485 [1]": {"system": "E. coli W1485", "settings": "for bacterial (LPS) binding reduced to, frequency shift normalized to control / ΔR (Ω) / ΔR/R0 (%): 18 hours", "experimental": "The gold QCM electrode consisted of a thin AT-cut quartz crystal wafer with vapor deposited gold electrode on each side (10 MHz, non-polished with 1000 A gold, geometric area is 0.22 cm2, International Crystal Company). For all QCM test, the gold electrode was mounted on the side of a KeI-F cell chamber. Frequency monitoring was performed using a Maxtek RQCM quartz crystal microbalance research instrument. Baseline was recorded in 1 mL of 10 mM HEPES buffer containing 1 mM Ca^2+ and 1 mM Mn^2+. Each of the bacterial samples to be analyzed was then added into the detection sensor cell after stabilization of resonance frequency (shift less than 1 Hz·min-1). A small magnetic stir bar was used to increase the mass transfer through convection. The frequency changes (ΔF) of the QCM were monitored using a network/spectrum/impedance analyzer (Agilent 4395A) controlled by a PC via an Intel card.\n(§1) In the end point measurement, four samples containing 2×10^5 cells/mL of E. coli obtained from log phase in fresh LB culture were prepared. […] The four samples were incubated for 18 hours, 37° C., 280 rpm on an orbital environmental shaker. Finally, 1 μL of the E. coli culture from the each prepared sample was introduced to the Con A biosensor in 1 mL of 10 mM HEPES buffer (pH 7.4) for QCM and electrochemical biosensor measurements, respectively. The sample without addition of any antibiotic was used as control.\n(§2) The concentrations used were based on the literature and current clinically used dosages. The sample without any antibiotic was used as a control. As mentioned above, E. coli W1485 was used as the model Gram-negative bacterial analyte. E. coli W1485 is a “semirough” bacterial strain in which the intact LPS core is capped by a single O-antigen subunit consisting of glucose, N-acetylglucosamine, galactose, and rhamnose in the ratio 1.8:1.0:0.7:0.6, which has been confirmed by the sodium dodecyl sulfate polyacrylamide gel electrophoresis (SDS-PAGE) method. Con A binds specifically at α-D-mannosyl and α-D-glucosyl residues (two hexoses differing only by the alcohol on carbon 2) in the terminal position of ramified structures from β-glycans (reach in α-mannose, or hybrid and biantennary glycanes complexes).\nHere the QCM frequency shift is because of the mass loading on the QCM surface due to bacterial adhesion and the change of damping resistance is a result of increasing softness of the interface which causes the damping of the oscillation wave."}, "E. coli W1485 [2]": {"system": "E. coli W1485", "experiment": "End point antibiotic susceptibility test with Con A biosensor, square wave voltammetry readout", "assay_type": "cell-based, Escherichia coli", "settings": "18 hours, FIG. 24B inset", "experimental": "as §1, §2"}, "E. coli W1485 [3]": {"system": "E. coli W1485", "settings": "for ΔR (Ω) / ΔR/R0 (%): 3 hours; for ΔF (Hz): FIG. 26", "experimental": "Experiments were also performed to study the concentration of the antibiotics and the length of the incubation time of antibiotics for their ability to kill or inhibit the growth of the bacteria. Different concentrations of each antibiotic were added to 5×10^8 cells/mL E. coli respectively, and then incubated at 37° C. and 280 rpm on the shaker. After 3 hours of incubation, 1 μL of antibiotic treated E. coli culture was added to the Con A sensor cell containing 1 mL of 10 mM HEPES buffer (pH 7.4) for QCM measurements, respectively. […] 1 μL of each antibiotic treated E. coli was taken at different incubation times (i.e., 0, 1, 2, 3 hours) and was added into the Con A senor cell containing 1 mL of 10 mM HEPES buffer (pH 7.4) for QCM measurements.\nBecause antibiotics from different classes have different mechanisms of action and antibiotic effects on bacterial morphology and viability are concentration and time dependent, it was hypothesized that the ability of antibiotics to kill the bacteria or inhibit its growth may be class and concentration dependent, which will affect the interaction between the LPS and Con A sensor. To further study the effects of concentration and length of incubation time on the bactericidal activities of antibiotics, different concentration of antibiotics were added into the broth containing E. coli and incubated for different lengths of times. […] FIGS. 26D through 26F show the histogram of ΔF or ΔR changes vs antibiotics with different concentrations that are again correlated to each other with ceftriaxone showing consistent increase in resistance with increasing its concentration. This is probably due to more and more cell lysis, thereby intensifying the fluidic environment.\nTo further compare the effect of concentrations on the bactericidal activities of the antibiotics, the binding kinetics between Con A sensor and E. coli were studied. The binding between Con A sensor and E. coli can be described by eq 2. [Con Aattached to gold]+[E. coli]→[E. coli/Con Aattached to gold] (2)\nThe amount of the complex E. coli/Con A formed at time t after the injection is given by eqs 3 and […], where ΔMmax is the maximum binding amount of E. coli/Con A, ΔM is the measured binding amount, and t is the time after injection. τ is the relaxation time associated with E. coli binding, which is calculated from curve fittings of the ΔF during the binding process. A higher τ value means a longer binding time is required between the Con A and E. coli."}, "E. coli": {"system": "E. coli", "settings": "cited from earlier work; for Previously Reported Minimum Inhibitory Concentration (MIC, mg/L): different strains"}, "[4]": {"settings": "E. coli binding to Con A sensor after 1 mg/L antibiotic"}, "[5]": {"settings": "E. coli binding to Con A sensor after 10 mg/L antibiotic"}, "[6]": {"settings": "E. coli binding to Con A sensor after 30 mg/L antibiotic"}}, "note": "Where “and” joins values, the source holds several entries; their conditions need not be identical. Equal entries are not always repeated. Where two headings read alike, the source gives them in different places.", "data": [{"smiles": "CO/N=C(\\C(=O)N[C@@H]1C(=O)N2C(C(=O)O)=C(CSc3nc(=O)c(=O)[nH]n3C)CS[C@H]12)c1csc(N)n1", "note": "[ceftriaxone]", "values": [{"measurement": "bacterial (LPS) binding reduced to, frequency shift normalized to control", "setting": "E. coli W1485 [1]; 0.1 mg/L antibiotic", "result": 27, "unit": "%"}, {"measurement": "ΔR (Ω)", "setting": "E. coli W1485 [1]; 0.1 mg/L antibiotic, FIG. 24A", "result": "6 Ω"}, {"measurement": "ΔR/R0 (%)", "setting": "E. coli W1485 [1]; 0.1 mg/L antibiotic, FIG. 24A", "result": 2.0, "unit": "%"}, {"measurement": "bacterial (LPS) binding reduced to, frequency shift normalized to control", "setting": "E. coli W1485 [1]; 0.1 mg/L antibiotic, listed as Ceftriaxone", "result": 27, "unit": "%"}, {"measurement": "ΔF (Hz)", "setting": "E. coli W1485 [1]; log phase E. coli incubated 18 hours, 37° C. with 0.1 mg/L antibiotic, FIG. 24A", "result": 87, "unit": "Hz"}, {"measurement": "increase of the SWV signal as compared to control", "setting": "E. coli W1485 [2]; 0.1 mg/L antibiotic", "result": 4.8, "unit": "folds"}, {"measurement": "ΔR (Ω)", "setting": "E. coli W1485 [3]; 1 mg/L antibiotic", "result": "16 Ω"}, {"measurement": "ΔR/R0 (%)", "setting": "E. coli W1485 [3]; 1 mg/L antibiotic", "result": 5.2, "unit": "%"}, {"measurement": "ΔR (Ω)", "setting": "E. coli W1485 [3]; 10 mg/L antibiotic", "result": "16.5 Ω"}, {"measurement": "ΔR/R0 (%)", "setting": "E. coli W1485 [3]; 10 mg/L antibiotic", "result": 5.4, "unit": "%"}, {"measurement": "ΔR (Ω)", "setting": "E. coli W1485 [3]; 30 mg/L antibiotic", "result": "18 Ω"}, {"measurement": "ΔR/R0 (%)", "setting": "E. coli W1485 [3]; 30 mg/L antibiotic", "result": 5.8, "unit": "%"}, {"measurement": "relaxation time τ", "setting": "E. coli W1485 [3]; [4]", "result": 15.5, "unit": "min"}, {"measurement": "relaxation time τ", "setting": "E. coli W1485 [3]; [5]", "result": 18.4, "unit": "min"}, {"measurement": "relaxation time τ", "setting": "E. coli W1485 [3]; [6]", "result": 22.5, "unit": "min"}, {"measurement": "MIC", "setting": "E. coli; E. coli (47)", "result": "0.0125 to 25", "unit": "µg/mL"}, {"measurement": "MIC", "setting": "E. coli; E. coli (305)", "result": "0.06 to 8", "unit": "µg/mL"}, {"measurement": "Previously Reported Minimum Inhibitory Concentration (MIC, mg/L)", "setting": "E. coli", "result": "0.024 to 0.195", "unit": "mg/L"}]}, {"smiles": "O=C(O)c1cn(C2CC2)c2cc(N3CCNCC3)c(F)cc2c1=O", "note": "[ciprofloxacin]", "values": [{"measurement": "ΔR (Ω)", "setting": "E. coli W1485 [1]; 0.1 mg/L antibiotic, FIG. 24A", "result": "8 Ω"}, {"measurement": "ΔR/R0 (%)", "setting": "E. coli W1485 [1]; 0.1 mg/L antibiotic, FIG. 24A", "result": 2.6, "unit": "%"}, {"measurement": "increase of the SWV signal as compared to control", "setting": "E. coli W1485 [2]; 0.1 mg/L antibiotic", "result": 7.2, "unit": "folds"}, {"measurement": "ΔR (Ω)", "setting": "E. coli W1485 [3]; 1 mg/L antibiotic", "result": "14.5 Ω"}, {"measurement": "ΔR/R0 (%)", "setting": "E. coli W1485 [3]; 1 mg/L antibiotic", "result": 4.7, "unit": "%"}, {"measurement": "ΔR (Ω)", "setting": "E. coli W1485 [3]; 10 mg/L antibiotic", "result": "10.5 Ω"}, {"measurement": "ΔR/R0 (%)", "setting": "E. coli W1485 [3]; 10 mg/L antibiotic", "result": 3.4, "unit": "%"}, {"measurement": "ΔR (Ω)", "setting": "E. coli W1485 [3]; 30 mg/L antibiotic", "result": "10.6 Ω"}, {"measurement": "ΔR/R0 (%)", "setting": "E. coli W1485 [3]; 30 mg/L antibiotic", "result": 3.5, "unit": "%"}, {"measurement": "relaxation time τ", "setting": "E. coli W1485 [3]; [4]", "result": 21, "unit": "min"}, {"measurement": "relaxation time τ", "setting": "E. coli W1485 [3]; [5]", "result": 23.5, "unit": "min"}, {"measurement": "relaxation time τ", "setting": "E. coli W1485 [3]; [6]", "result": 23.6, "unit": "min"}, {"measurement": "most effective concentration to act against this bacterial strain", "setting": "E. coli W1485 [3]; no big change in ΔF from 10 to 30 mg/L", "result": 10, "unit": "mg/L"}, {"measurement": "Previously Reported Minimum Inhibitory Concentration (MIC, mg/L)", "setting": "E. coli", "result": "0.0075 to 0.015", "unit": "mg/L"}]}, {"smiles": "CN(C)[C@@H]1C(O)=C(C(N)=O)C(=O)[C@@]2(O)C(O)=C3C(=O)c4c(O)cccc4[C@@](C)(O)[C@H]3C[C@@H]12", "note": "[tetracycline]", "values": [{"measurement": "ΔR (Ω)", "setting": "E. coli W1485 [1]; 10 mg/L antibiotic, FIG. 24A", "result": "7.2 Ω"}, {"measurement": "ΔR/R0 (%)", "setting": "E. coli W1485 [1]; 10 mg/L antibiotic, FIG. 24A", "result": 2.3, "unit": "%"}, {"measurement": "increase of the SWV signal as compared to control", "setting": "E. coli W1485 [2]; 10 mg/L antibiotic", "result": 2, "unit": "folds"}, {"measurement": "ΔR (Ω)", "setting": "E. coli W1485 [3]; 1 mg/L antibiotic", "result": "16.3 Ω"}, {"measurement": "ΔR/R0 (%)", "setting": "E. coli W1485 [3]; 1 mg/L antibiotic", "result": 5.3, "unit": "%"}, {"measurement": "ΔR (Ω)", "setting": "E. coli W1485 [3]; 10 mg/L antibiotic", "result": "17.2 Ω"}, {"measurement": "ΔR/R0 (%)", "setting": "E. coli W1485 [3]; 10 mg/L antibiotic", "result": 5.6, "unit": "%"}, {"measurement": "ΔR (Ω)", "setting": "E. coli W1485 [3]; 30 mg/L antibiotic", "result": "14.5 Ω"}, {"measurement": "ΔR/R0 (%)", "setting": "E. coli W1485 [3]; 30 mg/L antibiotic", "result": 4.7, "unit": "%"}, {"measurement": "ΔF (Hz)", "setting": "E. coli W1485 [3]; pretreated 3 hours with 10 mg/L antibiotic", "result": "200 Hz and 212 Hz"}, {"measurement": "ΔF (Hz)", "setting": "E. coli W1485 [3]; pretreated 3 hours with 30 mg/L antibiotic", "result": 160, "unit": "Hz"}, {"measurement": "ΔF (Hz)", "setting": "E. coli W1485 [3]; stationary phase E. coli pretreated 3 hours with 1 mg/L antibiotic", "result": "260 Hz and 262 Hz"}]}]}
